# Test results reported in PubChem BioAssay AID2060891 (Molecular Pharmacology Branch, DTP, NCI, 2025).
# Values joined by “and” are separate entries in the source; they are usually repeats but may differ in a detail not shown here. Equal values may be shown once.
# System: K98450-129-R-PDC complex spheroid growth, percent test/control
# Assay: Anticancer human tumor K98450-129-R-PDC patient-derived colon adenocarcinoma cell line growth inhibition [RAS]
# Conditions: for viability, T/C: stronger effect = lower value
# Source text: RAS pathway inhibitors in Combinations in Complex Spheroids
# A high-throughput screen of multi-cell type tumor spheroids was designed to identify active combinations of RAS pathway inhibitors and targeted small molecules. Complex spheroids include a stromal component modeled by human endothelial cells (HUVEC) and fibroblasts modeled by human mesenchymal stem cells (MSCs). The concentration ranges selected for each drug and investigational agent were based upon clinically achievable concentrations if the clinical Cmax of the agent was known.
# Compounds. The drugs and investigational agents: abemaciclib (NSC768073), cobimetinib (NSC768068), divarasib (GDC6063, NSC841802), docetaxel (NSC628503), GDC-1971 (RLY-1971, NSC841576), gemcitabine (NSC613327), inavolisib (NSC800729), ipatasertib (NSC767898), KB-0742 (NSC834161), MRTX-1133 (NSC836407), osimertinib (NSC779217), RMC-4630 (NSC839698), RMC-6236 (NSC851965), RMC-6291 (NSC852671), Ro-3306 (NSC812927), sapanisertib (NSC764658), SN-38 (NSC673596), staurosporine (NSC755774), SY5609 (NSC837396), and tovorafenib (DAY101, NSC766906), were obtained from the National Cancer Institute (NCI) Developmental Therapeutics Program Chemical Repository. The FDA-approved anticancer drug set is available from the NCI Developmental Therapeutics Program. […] The stock solutions were prepared in dimethyl sulfoxide (DMSO, Sigma-Aldrich, St. Louis, MO, cat. D2650) at 800-fold the tested concentration and stored at -70 degrees C prior to their use. All drugs and investigational agents were tested over a range starting from a high concentration at or near the clinical Cmax and decreasing in half-log increments. If the clinical Cmax for an agent had not been determined, the highest concentration tested was 10 microM.
# Cell Culture. All cells were maintained in an incubator at 37 degrees C and 5% CO2 with 95% humidity. The PDC lines were cultured according to standard operating procedures established by the NCI PDMR. All PDCs were thawed and cultured in Matrigel-coated flasks prepared with a working solution of 1X Ham's F-12 nutrient mix, without supplementation (Invitrogen, Waltham, MA, cat. 11765054), 100 U/mL penicillin-streptomycin (Invitrogen, cat. 15140122), and 2.5% Matrigel (Corning Inc., Corning, NY, cat. 354248) for the first three passages. The 362531-283-R-J2-PDC and 782815-120-R-J1-PDC lines were cultured in 6C/Colon 1B media, which includes advanced DMEM/F-12 (Thermo Fisher Scientific, cat. 12634028), 10 mM HEPES (Thermo Fisher Scientific, cat. 15630080), 1X GlutaMAX supplement (Thermo Fisher Scientific, cat. 35050061), 0.1 mg/mL primocin (InvivoGen, San Diego, CA, cat. ant-pm-2), 10% defined fetal bovine serum, heat inactivated (HyClone Laboratories Inc., Logan, UT, cat. SH30070.03HI), 50% L-WRN conditioned media (ATCC, cat. CRL-3276), 1.25 mM N-Acetyl-L-cysteine (Sigma-Aldrich, cat. A9165), 10 mM nicotinamide (Sigma-Aldrich, cat. N0636), 1X B-27 supplement (Thermo Fisher Scientific, cat. 17504044), 1X N-2 supplement (Thermo Fisher Scientific, cat. 17502048), 50 ng/mL human EGF (Thermo Fisher Scientific, cat. PHG0311), and 10 microM Y-27632 dihydrochloride (Tocris Bioscience, cat. 1254). The K12877-001-R-J1-PDC line was cultured in 6I media, which includes all 6C/Colon 1B media plus 10 ng/mL human FGF-10 (PeproTech, cat. 100-26), 1 ng/mL human FGF-2 (PeproTech, cat. 100-18B), 1 µM prostaglandin E2 (Tocris Bioscience, cat. 2296), […] hydrocortisone (Sigma-Aldrich, cat. H4001), and […] bovine insulin (Sigma-Aldrich, cat. I6634). The K86415-001-R-J1-PDC line was cultured in 6D media, which includes all 6C/Colon 1B media components minus the L-WRN conditioned media. The 485176-168-R4-J1-PDC was cultured in PANC media, which includes all 6C/Colon 1B media plus 100 ng/mL human FGF-10 (PeproTech, cat. 100-26), 500 nM SB-431542 (Selleckchem, cat. S1067), and 10 nM gastrin (Tocris Bioscience, cat. 3006). […]
# [1] = compound alone, run of 06/10/2024
# 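Further: spheroids exposed to agents for seven days before the viability readout.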
# 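Wherever viability, T/C is given: luminescence used as a proxy for viable cell amount.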
structure (smiles),measurement,setting,value
C#Cc1c(F)ccc2cc(O)cc(-c3ncc4c(N5CC6CCC(C5)N6)nc(OCC56CCCN5CC(F)C6)nc4c3F)c12 (stereo unspecified),"viability, T/C",compound 0.0316 µM,106% [middle of 8 runs]
same,"viability, T/C",compound 0.1 µM,105% [middle of 7 runs]
same,"viability, T/C",compound 0.316 µM,105% [middle of 8 runs]
same,"viability, T/C",compound 1 µM,102% [middle of 8 runs]
same,"viability, T/C",compound 3.16 µM,102% [middle of 8 runs]
same,"viability, T/C",compound 10 µM,95.1% [middle of 8 runs]
same,IC50,[1],> 10 µM
C=CC(=O)N1CCN(c2nc(OCC3CCCN3C)nc3c(F)c(-c4nc(N)cc(C)c4C(F)(F)F)c(Cl)cc23)C(C)C1 (stereo unspecified),"viability, T/C",compound 0.00316 µM,97.9% [middle of 12 runs]
same,"viability, T/C","compound 0.01 µM, compound 0.0316 µM",70.9%
same,"viability, T/C","compound 0.01 µM, compound 0.1 µM",59.3%
same,"viability, T/C","compound 0.01 µM, compound 0.316 µM",39.6%
same,"viability, T/C","compound 0.01 µM, compound 1 µM",29%
same,"viability, T/C","compound 0.0316 µM, compound 0.00316 µM",71.2%
same,"viability, T/C","compound 0.0316 µM, compound 0.01 µM",65.5%
same,"viability, T/C","compound 0.0316 µM, compound 0.1 µM",51.4%
same,"viability, T/C","compound 0.0316 µM, compound 0.316 µM",42.2%
same,"viability, T/C","compound 0.0316 µM, compound 1 µM",28.1%
same,"viability, T/C",compound 0.0316 µM,71.5% [middle of 13 runs]
same,"viability, T/C","compound 0.1 µM, compound 0.00316 µM",54.4%
same,"viability, T/C","compound 0.1 µM, compound 0.01 µM",52.5%
same,"viability, T/C","compound 0.1 µM, compound 0.0316 µM",56.5%
same,"viability, T/C","compound 0.1 µM, compound 0.316 µM",41.4%
same,"viability, T/C","compound 0.1 µM, compound 1 µM",30.8%
same,"viability, T/C",compound 0.1 µM,53.1% [middle of 13 runs]
same,"viability, T/C","compound 0.316 µM, compound 0.00316 µM",40.9%
same,"viability, T/C","compound 0.316 µM, compound 0.01 µM",38.6%
same,"viability, T/C","compound 0.316 µM, compound 0.0316 µM",43.2%
same,"viability, T/C","compound 0.316 µM, compound 0.1 µM",38.7%
same,"viability, T/C","compound 0.316 µM, compound 1 µM",31.3%
same,"viability, T/C",compound 0.316 µM,40.2% [middle of 13 runs]
same,"viability, T/C","compound 1 µM, compound 0.00316 µM",31.1%
same,"viability, T/C","compound 1 µM, compound 0.01 µM",35.5%
same,"viability, T/C","compound 1 µM, compound 0.0316 µM",31.5%
same,"viability, T/C","compound 1 µM, compound 0.1 µM",30.9%
same,"viability, T/C","compound 1 µM, compound 0.316 µM",33.1%
same,"viability, T/C",compound 1 µM,34% [middle of 13 runs]
same,IC50,[1],148 nM [middle of 8 runs]
same,IC50,curve of compound,144 nM [middle of 4 runs]
C=CC(=O)Nc1cc(Nc2nccc(-c3cn(C)c4ccccc34)n2)c(OC)cc1N(C)CCN(C)C,"viability, T/C",compound 0.00316 µM,102% (2×) and 95.4% and 104%
same,"viability, T/C",compound 0.01 µM,96.2% [middle of 4 runs]
same,"viability, T/C",compound 0.1 µM,100% [middle of 4 runs]
same,"viability, T/C",compound 0.316 µM,70.7% [middle of 4 runs]
same,"viability, T/C",compound 1 µM,36% [middle of 4 runs]
same,IC50,curve of compound,633 nM [middle of 4 runs]
CC(C)n1nc(-c2ccc3oc(N)nc3c2)c2c(N)ncnc21,"viability, T/C",compound 0.000316 µM,106% [middle of 4 runs]
same,"viability, T/C",compound 0.001 µM,90.9% [middle of 4 runs]
same,"viability, T/C",compound 0.00316 µM,93.6% [middle of 4 runs]
same,"viability, T/C",compound 0.01 µM,96.8% [middle of 4 runs]
same,"viability, T/C",compound 0.0316 µM,79.8% [middle of 4 runs]
same,"viability, T/C",compound 0.1 µM,78.4% (2×) and 86.4% and 72.6%
same,IC50,curve of compound,> 0.1 µM
